Data from US20260232767A1, “INTERLEUKIN-23 RECEPTOR ANTAGONIST PEPTIDES FOR USE IN THE TREATMENT OF PSORIASIS” (Janssen Pharmaceutica NV, priority 2023, published 2026).

Test system: subjects with moderate-to-severe plaque psoriasis
Test: Safety, adverse events, Example 2 through Week 56
Assay type: in vivo, human
Text: The LTE safety analysis was based on randomized participants in Example who entered the present long-term extension study and received at least one dose of study intervention (including a partial dose) during the study period.

[1] = Combined, Week 16 through Week 56

## CC(=O)NCCCC[C@@H]1NC(=O)[C@H](Cc2c[nH]c3c(C)cccc23)NC(=O)[C@H]([C@@H](C)O)NC(=O)[C@H](CC(N)=O)NC(=O)[C@@H](NC(C)=O)C(C)(C)SSC(C)(C)[C@@H](C(=O)N[C@@H](Cc2ccc(OCCN)cc2)C(=O)N[C@@H](Cc2ccc3ccccc3c2)C(=O)NC2(C(=O)N[C@@H](CCC(=O)O)C(=O)N[C@@H](CC(N)=O)C(=O)N[C@@H](Cc3cccnc3)C(=O)N(C)CC(N)=O)CCOCC2)NC1=O [IL-23 receptor antagonist peptide, Ac-[Pen]*-N-T-[W(7-Me)]-[Lys(Ac)]-[Pen]*-Phe[4-(2-aminoethoxy)]-[2-Nal]-[THP]-E-N-[3-Pal]-Sarc-NH2 (*[Pen]-[Pen]* formdisulfidebond)]
100 mg QD, through Week 56
  Respiratory, thoracic and mediastinal disorders: number of subjects: 4
  Retinal vein occlusion: number of subjects: 0
  Rhinorrhoea: number of subjects: 0
  Seasonal allergy: number of subjects: 0
  Skin and subcutaneous tissue disorders: % of subjects: (4.7%)
  Skin and subcutaneous tissue disorders: number of subjects: 2
  Skin laceration: % of subjects: (2.3%)
  Skin laceration: number of subjects: 1
  Skin papilloma: number of subjects: 0
  Social circumstances: number of subjects: 0
  Steatohepatitis: number of subjects: 0
  Subjects with AE leading to discontinuation: Abdominal discomfort: 0
  Subjects with AE leading to discontinuation: Abdominal pain: 0
  Subjects with AE leading to discontinuation: Alanine aminotransferase increased: 0
  Subjects with AE leading to discontinuation: Aspartate aminotransferase increased: 0
  Subjects with AE leading to discontinuation: Asthenia: 0
  Subjects with AE leading to discontinuation: Gamma-glutamyltransferase increased: 0
  Subjects with AE leading to discontinuation: Insomnia: 0
  Subjects with AE leading to discontinuation: Investigations: 0
  Subjects with AE leading to discontinuation: Nausea: 0
  Subjects with AE leading to discontinuation: Proctalgia: 0
  Subjects with AE leading to discontinuation: Psoriasis: 0
  Subjects with AE leading to discontinuation: Skin and subcutaneous tissue disorders: 0
  Subjects with AE leading to discontinuation: Transaminases increased: 0
  Subjects with AE leading to discontinuation: Weight increased: 0
  Subjects with COVID-19 associated AE: SARS-CoV-2 test positive: 0
  Subjects with treatment-emergent AE: Alanine aminotransferase increased: 0
  Subjects with treatment-emergent AE: Aspartate aminotransferase increased: 0
  Subjects with treatment-emergent AE: Bronchitis: 0
  Subjects with treatment-emergent AE: Headache: 5
  Subjects with treatment-emergent AE: Urinary tract infection: 0
  Subjects with treatment-emergent serious AE: Cardiac disorders: 0
  Subjects with treatment-emergent serious AE: Cerebrovascular accident: 0
  Subjects with treatment-emergent serious AE: Coronary artery disease: 0
  Subjects with treatment-emergent serious AE: Foot deformity: 0
  Subjects with treatment-emergent serious AE: General disorders and administration site conditions: 0
  Subjects with treatment-emergent serious AE: Infected cyst: 0
  Subjects with treatment-emergent serious AE: Injury, poisoning and procedural complications: 0
  Subjects with treatment-emergent serious AE: Ligament injury: 0
  Subjects with treatment-emergent serious AE: Neoplasms benign, malignant and unspecified (incl cysts and polyps): 0
  Subjects with treatment-emergent serious AE: Nervous system disorders: 0
  Subjects with treatment-emergent serious AE: Non-cardiac chest pain: 0
  Subjects with treatment-emergent serious AE: Respiratory, thoracic and mediastinal disorders: 0
  Subjects with treatment-emergent serious AE: Tonsillar hypertrophy: 0
  Subjects with treatment-emergent serious AE: Uterine leiomyoma: 0
  Subjects with treatment-emergent serious AE: Ventricular dysfunction: 0
  Suicide attempt: % of subjects: (2.3%)
  Suicide attempt: number of subjects: 1
  Sunburn: number of subjects: 0
  Thrombocytopenia: number of subjects: 0
  Thrombocytosis: number of subjects: 0
  Tonsillar hypertrophy: number of subjects: 0
  Tooth fracture: number of subjects: 0
  Type 2 diabetes mellitus: number of subjects: 0
  Urinary tract disorder: number of subjects: 0
  Uterine leiomyoma: number of subjects: 0
  Vascular disorders: % of subjects: (2.3%)
  Vascular disorders: number of subjects: 1
  Ventricular dysfunction: number of subjects: 0
  Vertigo: % of subjects: (2.3%)
  Vertigo: number of subjects: 1
  Vitamin D deficiency: number of subjects: 0
[1]
  Number of subjects with treatment-emergent AE: Cholelithiasis: 1
  Number of subjects with treatment-emergent AE: Ear and labyrinth disorders: 2
  Number of subjects with treatment-emergent AE: Endocrine disorders: 1
  Number of subjects with treatment-emergent AE: Eye disorders: 3
  Number of subjects with treatment-emergent AE: Eyelid skin dryness: 1
  Number of subjects with treatment-emergent AE: Goiter: 1
  Number of subjects with treatment-emergent AE: Hepatobiliary disorders: 2
  Number of subjects with treatment-emergent AE: Hypertransaminasemia: 1
  Number of subjects with treatment-emergent AE: Immune system disorders: 2
  Number of subjects with treatment-emergent AE: Insomnia: 1
  Number of subjects with treatment-emergent AE: Ocular cyst: 1
  Number of subjects with treatment-emergent AE: Psychiatric disorders: 1
  Number of subjects with treatment-emergent AE: Retinal vein occlusion: 1
  Number of subjects with treatment-emergent AE: Seasonal allergy: 2
  Number of subjects with treatment-emergent AE: Vertigo: 2
  Subjects with treatment-emergent AE: Cholelithiasis (%): (0.4%)
  Subjects with treatment-emergent AE: Ear and labyrinth disorders (%): (0.9%)
  Subjects with treatment-emergent AE: Endocrine disorders (%): (0.4%)
  Subjects with treatment-emergent AE: Eye disorders (%): (1.3%)
  Subjects with treatment-emergent AE: Eyelid skin dryness (%): (0.4%)
  Subjects with treatment-emergent AE: Goiter (%): (0.4%)
  Subjects with treatment-emergent AE: Hepatobiliary disorders (%): (0.9%)
  Subjects with treatment-emergent AE: Hypertransaminasemia (%): (0.4%)
  Subjects with treatment-emergent AE: Immune system disorders (%): (0.9%)
  Subjects with treatment-emergent AE: Insomnia (%): (0.4%)
  Subjects with treatment-emergent AE: Ocular cyst (%): (0.4%)
  Subjects with treatment-emergent AE: Psychiatric disorders (%): (0.4%)
  Subjects with treatment-emergent AE: Retinal vein occlusion (%): (0.4%)
  Subjects with treatment-emergent AE: Seasonal allergy (%): (0.9%)
  Subjects with treatment-emergent AE: Ventricular dysfunction (%): (0.4%)
  Subjects with treatment-emergent AE: Vertigo (%): (0.9%)
Combined, through Week 56
  Acrochordon: % of subjects: (0.8%)
  Acrochordon: number of subjects: 2
  Actinic keratosis: % of subjects: (0.4%)
  Actinic keratosis: number of subjects: 1
  Alopecia: % of subjects: (0.4%)
  Alopecia: number of subjects: 1
  Asthenia: % of subjects: (0.4%)
  Asthenia: number of subjects: 1
  Asthma: % of subjects: (0.4%)
  Asthma: number of subjects: 1
  Atrioventricular block first degree: % of subjects: (0.4%)
  Atrioventricular block first degree: number of subjects: 1
  Basal cell carcinoma: % of subjects: (0.4%)
  Basal cell carcinoma: number of subjects: 1
  Blood and lymphatic system disorders: % of subjects: (2.0%)
  Blood and lymphatic system disorders: number of subjects: 5
  Bronchitis chronic: % of subjects: (0.4%)
  Bronchitis chronic: number of subjects: 1
  Bundle branch block right: % of subjects: (0.4%)
  Bundle branch block right: number of subjects: 1
  Cardiac disorders: % of subjects: (1.6%)
  Cardiac disorders: number of subjects: 4
  Chills: % of subjects: (0.8%)
  Chills: number of subjects: 2
  Cholelithiasis: % of subjects: (0.4%)
  Cholelithiasis: number of subjects: 1
  Chronic obstructive pulmonary disease: % of subjects: (0.4%)
  Chronic obstructive pulmonary disease: number of subjects: 1
